A short description of test [1]: Inhibition of [3H]-DPDPE (cyclo[D-Pen2,D-Pen5]enkep halin) binding to delta opioid receptor expressed in CHO cells. In kind it is cell-based.
Test [2] can be described thus: Relative binding affinity for kappa and mu opioid receptors.
A short description of test [3]: Inhibition of [3H]diprenorphine binding to kappa opioid receptor expressed in CHO cells. It counts as cell-based.
A short description of test [4]: Relative binding affinity for kappa and delta opioid receptors.
Test [5] in a line: Inhibition of [3H]DAMGO ([D-Ala2,NMePhe4,glyol]-enkephalin) binding to mu opioid receptor expressed in CHO cells. In kind it is cell-based.

SMILES strings stand for the structures. A value given as a limit tells only on which side of the number the result lay.

As a reminder, the Ki is a measure of affinity in units of concentration, obtained from inhibition or displacement. Turning to `NCCCC[C@H](NC(=O)[C@@H]1CCCN1C(=O)[C@H](CCCN=C(N)N)NC(=O)[C@@H]1CNC(=O)C[C@H](NC(=O)[C@H](Cc2ccccc2)NC(=O)CNC(=O)CNC(=O)[C@H](Cc2ccc(O)cc2)NCc2ccccc2)C(=O)N[C@H](CCCN=C(N)N)C(=O)N[C@@H](CCCN=C(N)N)C(=O)N1)C(N)=O`, the results for the Ki in test [1], in test [3] and in test [5] were above 10000 nM, 30.3 nM and 5880 nM, respectively. Also, the Ratio was 0.005 in test [2] and 0.003 in test [4].

As to `CC[C@H](C)[C@H](NC(=O)[C@H](CCCN=C(N)N)NC(=O)[C@H](CCCN=C(N)N)NC(=O)[C@H](CC(C)C)NC(=O)[C@H](Cc1ccccc1)NC(=O)CNC(=O)CNC(=O)[C@@H](N)Cc1ccc(O)cc1)C(=O)N[C@@H](CCCN=C(N)N)C(=O)N1CCC[C@H]1C(=O)N[C@@H](CCCCN)C(N)=O`, the Ki in test [1] came out at 6.18 nM; in test [3], 0.57 nM. Also, the Ratio in test [2] turned out to be 0.33; in test [4], 0.09.

Regarding `CC(=O)NC[C@H](NC(=O)[C@H](CCCNC(=N)N)NC(=O)[C@H](CCCNC(=N)N)NC(=O)[C@@H](CC(N)=O)NC(=O)[C@H](Cc1ccccc1)NC(=O)CNC(=O)CNC(=O)[C@H](Cc1ccc(O)cc1)NCc1ccccc1)C(=O)N[C@@H](CCCNC(=N)N)C(=O)N1CCC[C@H]1C(=O)N[C@@H](CCCCN)C(N)=O`, the values for the Ki in test [1], in test [3] and in test [5] were above 10000 nM, 66.9 nM and 1660 nM, respectively. The figures for the Ratio in test [2] and in test [4] were 0.04 and 0.007, respectively.

Source of the values: ChEMBL document CHEMBL1140310, “[Nalpha-benzylTyr1,cyclo(D-Asp5,Dap8)]- dynorphin A-(1-11)NH2 cyclized in the "address" domain is a novel kappa-opioid receptor antagonist” (J Med Chem, 2005).
